Data as given in patent publication US20260337240A1, “CC16-DERIVED ANALOGS FOR THE TREATMENT OF INFLAMMATORY AND OBSTRUCTIVE LUNG DISEASES” (priority 2023, published 2026).
Non-standard residues stand in square brackets, D forms with d. Residues, ends and D or L forms follow the SMILES beside them. Nle = CCCC[C@H](N)C(=O)O

What was measured:
[1] = tested on: human Rhinovirus in primary nasal cells; assay: Peptidomimetic screen in human nasal cells: RV infectivity (RT-PCR); type: cell-based; settings: for RV infectivity / RV inhibition activity: RV MOI 0.1 for 4 hrs, then compound for 48 hrs, triplicate, RT-PCR (FIG. 10 top panel)
Source text: (§1) Top panel, RV infectivity; middle panel, IFN-lamda; bottom panel, TNF-alpha levels. All determined by RT-PCR.
(§2) CC16-derived peptidomimetics provide protection against human Rhinovirus infection in airway epithelial cells. Preliminary studies were done in primary nasal cells grown at an ALI. Transwell cells were challenged with RV ([…] (MOI) 0.1) for 4 hrs, after which external RV was washed from the cell surface and test compounds added; uninfected baseline controls will be treated the same by pipetting media. Cells are allowed to incubate for an additional 48 hrs. Three readouts were used for analysis in this screen: RV infectivity, INF-lambda induction, and TNF-alpha induction. An optimal compound for this screening will have a reduction in RV infection, maintain high levels of INF-lambda, and have low levels of TNF-alpha.
(§3) RV burden, INF-lambda, and TNF-alpha are assessed by RT-PCR. Those compounds moving forward will be tested in a dose-response to determine optimal concentrations needed for IC50.

INF-lambda = assay: Peptidomimetic screen in human nasal cells: INF-lambda induction (RT-PCR); type: cell-based; settings: 2.5 μM; RV MOI 0.1 for 4 hrs, then compound for 48 hrs; RT-PCR (FIG. 10 middle panel)
Source text: as §1, §2, §3

[2] = tested on: lung function in HDM-treated mice; assay: Baseline lung function (FEV0.2, invasive PFT) without methacholine provocation in HDM-treated mice; type: in vivo; settings: IV, 24 hrs after last HDM challenge (FIG. 8 right)
Description: (§4) Left panel, C836, was delivered via IV 2 hrs after each HDM challenge. Cells in the lavage fluid were measured 24 hrs after the last HDM challenge. Right panel, baseline lung function, without methacholine provocation, as assessed in the mice receiving C836 IV, 24 hrs after the last HDM challenge. ** p<0.01, **** p<0.0001 by ANOVA.
Lung function tests are typically performed using methacholine provocation, which induces bronchoconstriction. However, the tests referenced here were conducted without provocation, meaning that when C836 was administered alongside an HDM challenge, it prevented the loss of lung function typically associated with HDM exposure. These tests were conducted at baseline, without the use of a bronchoconstrictor, similar to an asthma patient living a normal day without an attack.

[3] = tested on: airway hyperresponsiveness (AHR); assay: Airway hyperresponsiveness (AHR) to methacholine in HDM-exposed Cc16^−/− mice (flexiVent); type: in vivo; settings: oropharyngeal, approximately 1 hr after each HDM dose on days 0, 7, 14; methacholine 24 hrs after last HDM; p<0.05 at the highest dose (FIG. 9)
Description: C836 was delivered to the airways 2 hrs after each HDM challenge. AHR to methacholine was assessed 24 hrs after the last HDM challenge. * p<0.05 at the highest dose.
C836 reduces AHR in Cc16^−/− mice exposed to HDM. The activity of C836 was tested for its ability to provide protection in the allergic airway model induced by exposure to HDM. For this, CC16^−/− mice were used, and the C836 (or vehicle control) was delivered to the airway via the oropharyngeal method approximately 1 hr after each HDM dose on days 0, 7, and 14. Mice were assessed 24 hrs after the last HDM challenge by flexi Vent® and methacholine challenge.

[4] = tested on: RV in primary human nasal epithelial cells (HNECs); assay: RV infection in primary human nasal epithelial cells (HNECs) at ALI, post-infection treatment (qPCR); type: cell-based; settings: 25 g/ml (so in the source); added after 4 hrs RV infection, 48 hrs incubation; non-asthma participants; p<0.01 by ANOVA (FIG. 6)
Description: Cells were grown at ALI for 3 weeks and infected with RV for 4 hours, after which they were washed and allowed to incubate for 48 hours with or without rCC16 or C836. RV was determined by qPCR. Each dot is a technical replicate, ** p<0.01 by ANOVA.
rCC16 and CC16-derived peptidomimetics reduce RV infection in human nasal cells. In order to test if rCC16 added exogenously could protect against RV viral infection, primary human nasal epithelial cells (HNECs) were grown from non-asthma participants at an air-liquid interface (ALI) for 21 days. On the day of infection, RV was added to the apical surface and allowed to incubate for 4 hrs, after which cells were gently washed with media, and either media alone, rCC16 (25 g/ml), or CC16-derived peptidomimetic, C836 (25 g/ml), were added and cells allowed to incubate for an additional 48 hrs. After harvest, RV infectivity was determined by PCR for RV.

[5] = tested on: house dust mite (HDM) allergic airway disease; neutrophils in lavage fluid; assay: Neutrophil recruitment into the lung in HDM model, IV treatment; type: in vivo, mice; settings: IV 2 hrs after each HDM challenge; lavage fluid 24 hrs after last HDM challenge; preliminary (FIG. 8 left)
Description: as §4
Thus, a small peptidomimetic was designed based on the newly discovered LVD (leucine-valine-aspartic acid) integrin binding domain contained within the CC16 protein. The lead compound, C836, is a 17-mer containing the LVD integrin binding domain. […] Neutrophils, when present in the lungs of individuals with asthma, are typically associated with more severe and difficult to treat forms of the condition. In COPD, neutrophils are often highly destructive, releasing factors and enzymes that degrade the basement membrane and damage the delicate airway epithelium. Therefore, strategies to reduce neutrophil accumulation or activity in both asthma and COPD would provide significant benefits for overall lung health, potentially improving disease outcomes and reducing airway damage.

TNF-alpha = assay: Peptidomimetic screen in human nasal cells: TNF-alpha induction (RT-PCR); type: cell-based; settings: 2.5 μM; RV MOI 0.1 for 4 hrs, then compound for 48 hrs; RT-PCR (FIG. 10 bottom panel)
Source text: as §1, §2, §3

respiratory challenges = settings: direct delivery; cited from earlier work
[6] = tested on: human Rhinovirus (RV; RVIB); assay: RV burden in CC16^−/− mice given rCC16 (RT-PCR); type: in vivo; settings: female CC16^−/− mice; RV 4×10^7 PFU/50 μl intranasal; rCC16 given at time of infection; RT-PCR at 48 hrs; p<0.05 by t-test (FIG. 4)
Description: RT-PCR at 48 hrs. * p<0.05 by t-test.
rCC16 treatment decreases human Rhinovirus (RV; RVIB) burden in CC16^−/− mice: For these studies, female mice were infected with RV (4×10^7 plaque-forming unit (PFU)/50 μl) via intranasal instillation for 48 hrs, and mice were either given vehicle (saline) or rCC16 (human recombinant CC16) at the time of infection.

[7] = tested on: leukocyte recruitment into the lungs; assay: rCC16 delivered intravenously or oropharyngeally: leukocyte recruitment into the lungs; type: in vivo; settings: only intravenous delivery
Source text: (§5) In the examples provided below, human recombinant CC16 (rCC16) was delivered either intravenously (IV) via retro-orbital injection or directly to the lungs through oropharyngeal delivery.

[8] = tested on: airway hyperresponsiveness and respiratory infections; assay: rCC16 delivered intravenously (retro-orbital) or oropharyngeally: airway hyperresponsiveness and respiratory infections; type: in vivo; settings: IV via retro-orbital injection or oropharyngeal delivery (both)
Source text: as §5

## CCCC[C@H](NC(=O)[C@H](CC(=O)O)NC(=O)[C@H](CCC(N)=O)NC(=O)[C@H](CC(=O)O)NC(C)=O)C(=O)N[C@@H](CCCNC(=N)N)C(=O)N[C@@H](CCC(=O)O)C(=O)N[C@@H](C)C(=O)NCC(=O)N[C@@H](C)C(=O)N[C@@H](CCC(N)=O)C(=O)N[C@@H](CC(C)C)C(=O)N[C@@H](CCCCN)C(=O)N[C@@H](CCCCN)C(=O)N[C@@H](CC(C)C)C(=O)N[C@H](C(=O)N[C@@H](CC(=O)O)C(=O)O)C(C)C [Compound 970, Ac-Asp-Gln-Asp-Nle-Arg-Glu-Ala-Gly-Ala-Gln-Leu-Lys-Lys-Leu-Val-Asp-OH] (Ac-DQD[Nle]REAGAQLKKLVD-OH)
[1]; 2.5 μM
  RV infectivity / RV inhibition activity: had RV inhibition activity

## CCCC[C@H](NC(=O)[C@H](CC(=O)O)NC(=O)[C@H](CCC(N)=O)NC(=O)[C@H](CC(=O)O)NC(C)=O)C(=O)N[C@@H](CCCNC(=N)N)C(=O)N[C@@H](CCC(=O)O)C(=O)N[C@@H](C)C(=O)NCC(=O)N[C@@H](C)C(=O)N[C@@H](CCC(N)=O)C(=O)N[C@@H](CC(C)C)C(=O)N[C@@H](CCCCN)C(=O)N[C@@H](CCCCN)C(=O)N[C@@H](CC(C)C)C(=O)N[C@H](C(N)=O)C(C)C [Compound 971, Ac-Asp-Gln-Asp-Nle-Arg-Glu-Ala-Gly-Ala-Gln-Leu-Lys-Lys-Leu-Val-NH2] (Ac-DQD[Nle]REAGAQLKKLV-NH2)
[1]; 2.5 μM
  RV infectivity / RV inhibition activity: had RV inhibition activity

## CCCC[C@H](NC(=O)[C@H](CC(=O)O)NC(=O)[C@H](CCC(N)=O)NC(C)=O)C(=O)N[C@@H](CCCNC(=N)N)C(=O)N[C@@H](CCC(=O)O)C(=O)N[C@@H](C)C(=O)NCC(=O)N[C@@H](C)C(=O)N[C@@H](CCC(N)=O)C(=O)N[C@@H](CC(C)C)C(=O)N[C@@H](CCCCN)C(=O)N[C@@H](CCCCN)C(=O)N[C@@H](CC(C)C)C(=O)N[C@H](C(=O)N[C@@H](CC(=O)O)C(=O)N[C@H](C(N)=O)[C@@H](C)O)C(C)C [Compound 972, Ac-Gln-Asp-Nle-Arg-Glu-Ala-Gly-Ala-Gln-Leu-Lys-Lys-Leu-Val-Asp-Thr-NH2] (Ac-QD[Nle]REAGAQLKKLVDT-NH2)
[1]; 2.5 μM
  RV infectivity / RV inhibition activity: had RV inhibition activity
[1]; 2.5 μM, RV-infected nasal cells
  overall outcome of the screen for the 3 factors (RV infectivity, INF-lambda, TNF-alpha): best candidate to move forward
INF-lambda
  INF-lambda levels: maintain INF-lambda levels

## CCCC[C@H](NC(=O)[C@H](CC(=O)O)NC(=O)[C@H](CCC(N)=O)NC(=O)[C@H](CC(=O)O)NC(C)=O)C(=O)N[C@@H](CCCNC(=N)N)C(=O)N[C@@H](CCC(=O)O)C(=O)N[C@@H](C)C(=O)NCC(=O)N[C@@H](C)C(=O)N[C@@H](CCC(N)=O)C(=O)N[C@@H](CC(C)C)C(=O)N[C@@H](CCCCN)C(=O)N[C@@H](CCCCN)C(=O)N[C@@H](CC(C)C)C(=O)N[C@H](C(=O)N[C@@H](CC(=O)O)C(=O)N[C@H](C(N)=O)[C@@H](C)O)C(C)C [Compound C836, DQD-Nle-REAGAQLKKLVDT] (Ac-DQD[Nle]REAGAQLKKLVDT-NH2)
[1]; 2.5 μM
  RV infectivity / RV inhibition activity: have activity in reducing RV infectivity
[2]
  loss of lung function as measured by FEV0.2: protective from loss of lung function
[3]
  airway hyperresponsiveness (AHR) compared to HDM-treated given vehicle: significantly lower airway hyperresponsiveness (AHR)
[4]
  reduction of RV infection in human nasal cells: approximately 80%
[5]
  neutrophils recruited into the lung during HDM challenge: fewer neutrophils are recruited into the lung

## Ac-Nle-Arg-Glu-Ala-Gly-Ala-Gln-Leu-Lys-Lys-Leu-Val-Asp-Thr-NH2 (Ac-[Nle]REAGAQLKKLVDT-NH2; SMILES CCCC[C@H](NC(C)=O)C(=O)N[C@@H](CCCNC(=N)N)C(=O)N[C@@H](CCC(=O)O)C(=O)N[C@@H](C)C(=O)NCC(=O)N[C@@H](C)C(=O)N[C@@H](CCC(N)=O)C(=O)N[C@@H](CC(C)C)C(=O)N[C@@H](CCCCN)C(=O)N[C@@H](CCCCN)C(=O)N[C@@H](CC(C)C)C(=O)N[C@H](C(=O)N[C@@H](CC(=O)O)C(=O)N[C@H](C(N)=O)[C@@H](C)O)C(C)C) [Compound 974]
[1]; 2.5 μM
  RV infectivity / RV inhibition activity: had RV inhibition activity
TNF-alpha
  TNF-alpha levels: has a spike in TNF-alpha
INF-lambda
  INF-lambda levels: maintain INF-lambda levels

B1: rCC16: human recombinant CC16 (club cell secretory protein) (protein, UniProt P11684 22-91, looked up)
Uteroglobin: EICPSFQRVIETLLMDTPSSYEAAMELFSPDQDMREAGAQLKKLVDTLPQKPRESIIKLMEKIAQSSLCN
[1]; rCC16, RV infection of nasal cells, read-out: dose found to be optimal to inhibit 50% of infection
  IC50: 2500 nM
Respiratory challenges
  protection during respiratory challenges: protective
[6]
  RV burden compared to vehicle-treated mice: significant reduction in RV
[7]
  leukocyte recruitment into the lungs: reduce leukocyte recruitment into the lungs
[4]
  reduction of RV infection in human nasal cells: approximately 80%
[8]
  protection against airway hyperresponsiveness and respiratory infections: effective in providing protection

B2: rCC16 from R&D: standard control, rCC16 from R&D (protein, UniProt P11684 22-91, looked up)
Uteroglobin: B1 Uteroglobin
[1]; 2.5 μM
  RV infectivity / RV inhibition activity: have activity in reducing RV infectivity

B3: rCC16 made at UA (MJ): standard control, rCC16 made at UA (MJ) (protein, UniProt P11684 22-91, looked up)
Uteroglobin: B1 Uteroglobin
[1]; 2.5 μM
  RV infectivity / RV inhibition activity: have activity in reducing RV infectivity
